Test results from patent US7407940B2, “Antimicrobial hexapeptides” (Helix BioMedix Inc., priority 2005, dated 2008).
Like-named read-outs stand apart in the source and are kept apart here. Where a SMILES comes first, the peptide text is derived from it. Where no end group is shown, it is not given here. [ ]: non-standard residue; d: D form. The star is where a group is joined. 2Nal = N[C@@H](Cc1ccc2ccccc2c1)C(=O)O; Lauroyl = CCCCCCCCCCCC(=O)*; code J = not defined here; Octanoyl = CCCCCCCC(=O)*

Assays:
[1] = tested on: Lipoteichoic acid (LTA); test: LTA binding assay; details: FIG. 7
Excerpt: Lipoteichoic acid (LTA) is a common cell wall component of gram-positive bacteria including organisms such as S. aureus and P. acnes. The release of LTA during infection can lead to the release of mediators of the host inflammatory response which in turn can result in sepsis (septic shock). For example, when injected into animals, LTA can elicit many of the characteristic features of septic shock, including cytokine production, leukocytopenia, circulatory failure, multiple-organ dysfunction syndrome, and mortality.

[2] = tested on: S. aureus MRSA; test: Kill kinetics in lipid (liposome) environment with or without serum; type: cell-based; details: peptide 0.5 mg/ml; liposomes, presence or absence of serum
Excerpt: Referring to FIG. 8, not only does lipidation improve the activity of hexapeptides in serum it improves activity in a lipid environment which is a mimic of the human acne lesion environment. The human sebaceous gland secretion, also called sebum, contains squalene, cholesterol, cholesterol esters, wax esters, and triglycerides in which a large […] of P. acnes appears to take advantage of this environment and hydrolyzes certain sebaceous lipids. The pre-pubertal and pubertal increase in sebum secretion is almost certainly involved in the pathogenesis of adolescent acne. The activity of SEQ ID NO: 55 was studied in this environment compared to P64(SEQ ID NO:90), a traditional cationic antimicrobial peptide. Due to the fact that most lipids are water insoluble, peptide-liposomes composed of phosphatidylcholine, phosphatidylglycerol and cholesterol in the molar ratio of 7:2:1 in saline were used and kill kinetics of the peptides were assessed in the presence or absence of serum.

[3] = tested on: Trychophyton rubrum; test: MIC100 against dermatophyte Trychophyton rubrum; type: cell-based; details: T. rubrum; at 10 days
Experimental: (§1) In order to compare the activity of various antimicrobial peptides, including hexapeptide SEQ ID NO:1 (P0666), MIC were determined against the dermatophytes Trychophyton rubrum and Trychophyton mentagrophytes. The concentration of samples investigated were: 2000, 1000, 500, 250 and 125 μg/ml, respectively. The medium used was modified Sabouraud's media without agar. For a 100 mL of modified Sabouraud medium: 3 g of Sabouraud's dextrose broth (Difco) was mixed into 100 mL of deionized water. The pH was adjusted to 7.0 with 0.1 N NaOH. The solution was autoclaved for thirty minutes. 940 μL of medium was poured into sterile 20 mL test tubes with plastic caps and was allowed to cool.
(§2) 50 μL of […] was added to each 20 mL test tube to make the required concentration. A control tube was composed of 50 μL of saline without sample. For the MIC experiments,
(§3) 10 μL of organism suspended in saline was added to the each 20 mL test tube and vortexed slightly. Each of the test tubes was covered in parafilm and maintained on a shaker at 27° C. at a speed of approximately 100 rpm.
(§4) The growth/inhibition of the organism was observed on a daily basis. […] The Minimum Inhibition Concentration (MIC100) for compounds F1 to F10 against fungus Trychophyton rubrum and Trychophyton mentagrophytes at 10 days.

[4] = tested on: Trychophyton mentagrophytes; test: MIC100 against dermatophyte Trychophyton mentagrophytes; type: cell-based; details: T. mentagrophytes; at 10 days
Experimental: as §1, §2, §3, §4

[5] = tested on: S. epidermidis ATCC12228; test: MIC, broth microdilution, S. epidermidis; type: cell-based; parameters: unit not given beside the values; details: #86: S. epidermidis ATCC12228
Experimental: (§5) MICs (minimal inhibitory concentrations) were determined for the hexapeptides of interest using a slightly modified version of the NCCLS (National Committee for Clinical Laboratory Standards) broth microdilution method as described previously (Steinberg et al., AAC 41: 1738, 1997). Briefly, antimicrobial agents were prepared as 10× concentrates in the most appropriate solvent. For the hexapeptide, 0.01% acetic acid containing 0.2% bovine serum albumin as a carrier protein was used. Inocula were prepared by resuspending colonies from a BAP (please spell out this term) in medium and adjusting the suspension to match that of a 0.5 McFarland standard. The suspension was diluted into fresh medium (as recommended by NCCLS for the organism) to give 2×10^5 to 7×10^5 CFU/ml for bacteria or 2×10^3 to 7×10^3 CFU/ml for Candida. After dispensing 100 μl aliquots of the microbial suspension into each well of a 96-well polypropylene microtiter plate, 11 μl of test compound was added. The MIC was defined as the lowest concentration of drug which prevented visible turbidity after 16 to 20 hours (bacteria) or 46 to 50 hours (Candida) at 35° C.

[6] = tested on: S. aureus; test: Kill curve in 80% serum, S. aureus; type: cell-based
Excerpt: It should be noted that in addition to MIC data, the lipo-hexapeptides can also be distinguished by their ability to kill bacteria in the presence of biological constituents such as serum. […] This activity, an indicator of therapeutic potential, is not obvious from the MIC data alone.

[7] = parameters: species or system Sprague-Dawley rats; details: rat, in vivo
Excerpt: Each wound observed at each dressing change and the wound surface and tissue reaction assessed. There were 5 parameters of wound status that were checked: • i. Wound Film Security—Was the adhesive film used to cover the wound still completely adherent to the skin around the wound? • ii. Wound Surface—What was the exact visual appearance of the wound surface? • iii. Amount of Exudate—How much exudate was trapped under the film? In many cases, accumulated exudate causes the film to lose adherence and the exudates will escape. • iv. Severity of Tissue Reaction—A subjective rating of extent of tissue reaction on a scale of 1 (minimal), 2 (moderate), 3 (extensive). • v. % of Tissue Involved—In some situations, the wound surface contained denatures, friable tissue that could be wiped off with pressure applied to gauze. This test was used to better differentiate denatured tissue from viscous exudates.

[8] = tested on: P. acnes; test: Activity against extended panel of P. acnes; type: cell-based; parameters: unit not given here
Excerpt: A very promising application for short bioactive peptides is for dermatological indications such as acne.

[9] = tested on: P. aeruginosa; type: cell-based; details: combined with polymyxin B
Experimental: (§6) The fractional inhibitory concentration (FIC) index was used to determine the synergy between antimicrobial agents. Peptide MICs against test microorganisms were determined three times on separate occasions. […]

[10] = tested on: MRSA; test: Kill curve in 10% sheep serum-phosphate buffer against MRSA; type: cell-based, S. aureus; parameters: MRSA count in kill curve: unit not given here
[11] = tested on: Salmonella typhimurium 14028S; test: MIC, broth microdilution, S. typhimurium; type: cell-based; parameters: unit not given here; details: S.typhimurium
Experimental: as §5

[12] = tested on: azole resistant strains of C. albicans; type: cell-based; parameters: MIC-SEQ ID NO: 55 + azole, peptide part / MIC-SEQ ID NO: 55 + azole, azole part: unit not given beside the values; details: in combination with clotrimazole
Experimental: as §6
All strains are azole resistant clinical isolates from Prof. Ted White (Seattle Biotechnology Research Institute, Seattle)

[13] = tested on: Pseudomonas aeruginosa; type: cell-based; parameters: MIC, lipid length SAR: unit not given here; details: P.aeruginosa
Experimental: as §5

Compound: SEQ ID NO:83 (Lauroyl-[dK][dF][dK][dW][dP][dW]-NH2; SMILES CCCCCCCCCCCC(=O)N[C@H](CCCCN)C(=O)N[C@H](Cc1ccccc1)C(=O)N[C@H](CCCCN)C(=O)N[C@H](Cc1c[nH]c2ccccc12)C(=O)N1CCC[C@@H]1C(=O)N[C@H](Cc1c[nH]c2ccccc12)C(N)=O)
- LTA binding (in words) [1]: fail to bind LTA

Compound: FAKALKALLKALKAL-NH2 [SEQ ID NO: 90]
- kill kinetics in lipid environment (in words) [2]: shown to be effective
- MIC100 [3]: 1000 µg/mL
- MIC100 [4]: 500 µg/mL

Compound: KWKWJW-NH2 (KWKW[code J]W-NH2; reading uncertain; also: printed as KWKWJW-NH2) [SEQ ID NO: 60]
- MIC [5]: >128

Compound: Lau-kfkwpw-NH2 (Lauroyl-[dK][dF][dK][dW][dP][dW]-NH2; SMILES CCCCCCCCCCCC(=O)N[C@H](CCCCN)C(=O)N[C@H](Cc1ccccc1)C(=O)N[C@H](CCCCN)C(=O)N[C@H](Cc1c[nH]c2ccccc12)C(=O)N1CCC[C@@H]1C(=O)N[C@H](Cc1c[nH]c2ccccc12)C(N)=O) [SEQ ID NO: 83]
- killing of S. aureus in 80% serum (in words) [6]: perform very well

Compound: OCT-KWKWFW-NH2 (Octanoyl-KWKWFW-NH2; SMILES CCCCCCCC(=O)N[C@@H](CCCCN)C(=O)N[C@@H](Cc1c[nH]c2ccccc12)C(=O)N[C@@H](CCCCN)C(=O)N[C@@H](Cc1c[nH]c2ccccc12)C(=O)N[C@@H](Cc1ccccc1)C(=O)N[C@@H](Cc1c[nH]c2ccccc12)C(N)=O) [SEQ ID NO: 56]
- MIC [5]: 4

Compound: CCCCCCCC(=O)N[C@@H](CCCCN)C(=O)N[C@@H](Cc1ccccc1)C(=O)N[C@@H](CCCCN)C(=O)N[C@@H](Cc1c[nH]c2ccccc12)C(=O)N1CCC[C@H]1C(=O)N[C@@H](Cc1c[nH]c2ccccc12)C(N)=O [SEQ ID NO: 55 (P-1032)] (Octanoyl-KFKWPW-NH2)
- Tissue reaction severity [7]: 1

Compound: SEQ ID NO:72 (Lauroyl-KFKWPW-NH2; SMILES CCCCCCCCCCCC(=O)N[C@@H](CCCCN)C(=O)N[C@@H](Cc1ccccc1)C(=O)N[C@@H](CCCCN)C(=O)N[C@@H](Cc1c[nH]c2ccccc12)C(=O)N1CCC[C@H]1C(=O)N[C@@H](Cc1c[nH]c2ccccc12)C(N)=O)
- LTA binding (in words) [1]: binds LTA to the same degree as a typical highly charged alpha-helical amphipathic peptide

Compound: KWKWZW-NH2 (KWKW[2Nal]W-NH2) [SEQ ID NO: 63]
- MIC [5]: 2

Compound: CCCCCCCC(=O)N[C@@H](CCCCN)C(=O)N[C@@H](Cc1ccccc1)C(=O)N[C@@H](CCCCN)C(=O)N[C@@H](Cc1c[nH]c2ccccc12)C(=O)N1CCC[C@H]1C(=O)N[C@@H](Cc1c[nH]c2ccccc12)C(N)=O [SEQ ID NO: 55, OCT-KFKWPW-NH2] (Octanoyl-KFKWPW-NH2)
- Activity (MIC) against P. acnes ([8]; ATCC 6921): 4
- Activity (MIC) against P. acnes ([8]; ATCC 6922): 8
- Activity (MIC) against P. acnes ([8]; ATCC 6923): 8
- Activity (MIC) against P. acnes ([8]; ATCC 11828): 8
- Activity (MIC) against P. acnes ([8]; ATCC 12930): 8
- Activity (MIC) against P. acnes ([8]; ATCC 25746): 1
- Activity (MIC) against P. acnes ([8]; ATCC 29399): 16
- Activity (MIC) against P. acnes ([8]; ATCC 33179): 16
- Activity (MIC) against P. acnes ([8]; ATCC 49929): 0.125
- Activity (MIC) against P. acnes ([8]; ATCC 51277): 4
- kill kinetics in lipid environment (in words) [2]: shown to be effective
- MIC [5]: 8
- MIC-NO: 55 combined ([9]; P. aeruginosa 100609): 2 µg/mL
- MIC-NO: 55 combined ([9]; P. aeruginosa H187): 8 µg/mL
- MIC-NO: 55 combined ([9]; P. aeruginosa H401): 2 µg/mL
- MIC-NO: 55 combined ([9]; P. aeruginosa M917): 16 µg/mL
- MRSA count in kill curve ([10]; buffer, 1 mg/ml, 30 min): 100
- MRSA count in kill curve ([10]; buffer, 1 mg/ml, 1 hour): 100
- MRSA count in kill curve ([10]; buffer, 1 mg/ml, 2 hours): 10
- MRSA count in kill curve ([10]; buffer, 1 mg/ml, 3 hours): 10
- MRSA count in kill curve ([10]; buffer, 1 mg/ml, 4 hours): 10
- MRSA count in kill curve ([10]; buffer, 1 mg/ml, 5 hours): 10
- MRSA count in kill curve ([10]; serum, 0.5 mg/ml, 30 min): 10
- MRSA count in kill curve ([10]; serum, 0.5 mg/ml, 1 hour): 10
- MRSA count in kill curve ([10]; serum, 0.5 mg/ml, 2 hours): 10
- MRSA count in kill curve ([10]; serum, 0.5 mg/ml, 3 hours): 10
- MRSA count in kill curve ([10]; serum, 0.5 mg/ml, 4 hours): 10
- MRSA count in kill curve ([10]; serum, 0.5 mg/ml, 5 hours): 10
- MRSA count in kill curve ([10]; serum, 1 mg/ml, 30 min): 3900
- MRSA count in kill curve ([10]; serum, 1 mg/ml, 1 hour): 1100
- MRSA count in kill curve ([10]; serum, 1 mg/ml, 2 hours): 100
- MRSA count in kill curve ([10]; serum, 1 mg/ml, 3 hours): 30
- MRSA count in kill curve ([10]; serum, 1 mg/ml, 4 hours): 20
- MRSA count in kill curve ([10]; serum, 1 mg/ml, 5 hours): 60
- MRSA count in kill curve ([10]; serum, 2 mg/ml, 30 min): 1000000
- MRSA count in kill curve ([10]; serum, 2 mg/ml, 1 hour): 1000000
- MRSA count in kill curve ([10]; serum, 2 mg/ml, 2 hours): 1000000
- MRSA count in kill curve ([10]; serum, 2 mg/ml, 3 hours): 1000000
- MRSA count in kill curve ([10]; serum, 2 mg/ml, 4 hours): 1000000
- MRSA count in kill curve ([10]; serum, 2 mg/ml, 5 hours): 1000000
- MIC, lipid length SAR [11]: 32
- MIC-SEQ ID NO: 55 + azole, peptide part ([12]; C. albicans #185): 16
- MIC-SEQ ID NO: 55 + azole, peptide part ([12]; C. albicans #186): 2
- MIC-SEQ ID NO: 55 + azole, peptide part ([12]; C. albicans #187): 4
- MIC-SEQ ID NO: 55 + azole, peptide part ([12]; C. albicans #192): 4
- MIC-SEQ ID NO: 55 + azole, peptide part ([12]; C. albicans #196): 4
- MIC-SEQ ID NO: 55 + azole, peptide part ([12]; C. albicans #199): 4
- MIC, lipid length SAR [13]: 32
